Assay results published in publication PMC3625590, “NBM-T-L-BMX-OS01, Semisynthesized from Osthole, Is a Novel Inhibitor of Histone Deacetylase and Enhances Learning and Memory in Rats” (Evidence-based Complementary and Alternative Medicine : eCAM, 2013).

What was measured:
[1] = system: primary hippocampal neurons; experiment: MTT cell survival assay; type: cell-based, Sprague-Dawley rats; details: 1, 2.5, 5 and 10 μM, DIV 5, 24 h
Experimental: (§1) The primary hippocampal culture was prepared as described previously. To culture embryonic hippocampal primary neurons, pregnant Sprague-Dawley rats were purchased from the National Laboratory Center in Taiwan. The hippocampal tissue from the embryos of the Sprague-Dawley rats (E19) was dissociated with 100 U/mL of papain (Sigma-Aldrich) and plated onto poly-L-lysine-coated coverslips at a density of 1 × 10^4 cells/cm^2 with a minimal essential medium containing 5% calf serum, 5% horse serum, and 50 ng/mL insulin-transferrin-selenite (Sigma-Aldrich). Three hours after plating, the medium was replaced with 2% of a B27-neurobasal medium (Invitrogen, Carlsbad, CA, USA) containing 0.5 mM glutamine and 12.5 μM glutamate.
Cell viability was evaluated by an MTT (3-(4,5-dimethylthiazol-2-yl)-2,5-diphenyl tetrazolium bromide, Sigma-Aldrich) assay 24 h after SAHA and BMX treatment at concentrations of 0, 1, 2.5, 5, and 10 μM. The protocol was performed as described previously. Cells were incubated with an MTT (0.5 mg/mL) reagent (Sigma-Aldrich) at 37°C for 1 h. The MTT solution was removed, and DMSO was added to the wells shaken at room temperature for 1 h. The amount of MTT formazan product was quantified by measuring its absorbance at 570 and 630 nm by using an ELISA plate reader (SpectraMax M2 Microplate Readers, Molecular Devices, Sunnyvale, CA, USA).

[2] = system: primary hippocampal neurons; experiment: Neurite outgrowth by immunocytochemistry; type: cell-based, Sprague-Dawley rats
Experimental: as §1
Supplemental Materials and Methods
2.1. HEK293T cells. HEK293T cells were maintained in Dulbecco’s modified Eagle’s medium (Invitrogen) supplemented with 10% fetal calf serum (Invitrogen). Cultures were maintained in a humidified 5% CO2-95% air atmosphere at 37°C.
2.2. Immunocytochemistry. Cultured hippocampal neurons were fixed with 4% paraformaldehyde for 15 min and permeablized with 0.1% Triton X-100 for 20 min at room temperature (RT). The primary Mouse anti-β III tubulin and anti-actin (Millipore) Abs were added for 1 h at RT. […]
The lysate was resolved by 8% SDS-PAGE. […] The protein bands were quantified using the NIH Image J Software. […]

[3] = system: Sco-induced amnesia rats; experiment: Passive one-way avoidance, Sco-induced memory impairment; type: in vivo, Sprague-Dawley rats; details: Sco 1.5 mg/kg/d; BMX or SAHA 5 mg/kg/d i.p.; 1 day and 7 days after footshock
Experimental: The BMX and SAHA stock (100 mg/mL) was dissolved in DMSO and diluted with saline to a final concentration of 0.5 mg/mL (in 0.5% DMSO/saline). Sco was dissolved in saline to a final concentration of 0.15 mg/mL based on previous studies [35, 36]. SD rats were randomly divided into 3 groups. For the naïve animal experiments, the BMX-injected or SAHA-injected groups were injected with BMX (5 mg/kg/d) or SAHA (5 mg/kg/d) intraperitoneally 7 d prior to behavioral experiments and during the experimentation. The control group received the 0.5% DMSO/saline injection. The injection volume was 10 μL/g of body weight. The injections were performed once per day. For the amnesia experiment, the protocol was adopted from previous studies [35, 36] with modifications. The Sco-injected (SAHA + Sco) or (BMX + Sco)-injected groups were injected with Sco (1.5 mg/kg/d), SAHA (5 mg/kg/d) or BMX (5 mg/kg/d), intraperitoneally 7 d prior to behavioral experiments and during the experimentation. The control group received the 0.5% DMSO/saline injection. The injection volume was 10 μL/g of body weight. […]
The apparatus consisted of a trough-shaped alley divided by a sliding door that separates an illuminated safety compartment and a dark compartment. […] The behavioral task, including the training and testing procedures, was recorded between 8:00 AM and 6:00 PM. […]

[4] = system: Sco-induced amnesia rats; experiment: Novel object recognition, Sco-induced memory impairment; type: in vivo, Sprague-Dawley rats; details: Sco 1.5 mg/kg/d; BMX or SAHA 5 mg/kg/d i.p.; 8 h
Experimental: SAHA was supplied by NatureWise Biotech and Medicals Corporation (Taipei, Taiwan). […] (St. Louis, MO, USA). The BMX and SAHA stock (100 mg/mL) was dissolved in DMSO and diluted with saline to a final concentration of 0.5 mg/mL (in 0.5% DMSO/saline). […] SD rats were randomly divided into 3 groups. For the naïve animal experiments, the BMX-injected or SAHA-injected groups were injected with BMX (5 mg/kg/d) or SAHA (5 mg/kg/d) intraperitoneally 7 d prior to behavioral experiments and during the experimentation. The control group received the 0.5% DMSO/saline injection. The injection volume was 10 μL/g of body weight. The injections were performed once per day. For the amnesia experiment, the protocol was adopted from previous studies with modifications. […] The control group received the 0.5% DMSO/saline injection. The injection volume was 10 μL/g of body weight. […] The method used was adopted from that of a previous study with modifications. During familiarization, rats were allowed to explore 2 identical objects in an open field box (90 × 70 × 60 cm) for 5 min. The criteria used for exploration were a distance less than 1.5 cm between the rat and the object or direct contact with the object. […] The time that each rat spent exploring the 2 objects during a 5 min period was recorded. […]

[5] = parameters: method as in PMID 20010553; details: cited from earlier work

## O=C(CCCCCCC(=O)Nc1ccccc1)NO [SAHA, suberoylanilide hydroxamic acid, reference compound]
[1]
  survival rate of primary hippocampal neurons (MTT): reduced the survival rate of the hippocampal neurons at concentrations of 2.5, 5, and 10 μM
[2]
  neurite branch and neurite length: increased the neurite length in particular
[3]
  retention time in the illuminated chamber: showed less retention time in the illuminated chamber
[4]
  exploratory preference for the novel object (NO): showed no exploratory preference for the NO
[5]
  crossing of the blood-brain barrier: cross the blood-brain barrier (BBB)
